In patent publication US12084445B2, “Broad-spectrum carbapenems” (VenatoRx Pharmaceuticals, Inc., priority 2018, dated 2024):

What was measured:
Format in all cases: cell-based
S. aureus USA 300 = assay: broth microdilution MIC assay, S. aureus USA 300; settings: Staphylococcus aureus; Table 4; S. aureus USA300; read-out: S. aureus USA300 MIC
Procedure: (§1) To determine the ability of test compounds to potentiate the inhibition of the growth of bacterial strains, classic cell-based broth microdilution MIC assays were employed. MIC assays are performed according to CLSI methods except where otherwise noted (CLSI, 2011 and CLSI, 2009). The reference strains S. aureus ATCC 29213 (methicillin sensitive), S. aureus ATCC 33591 (methicillin-resistant), E. coli ATCC 25922 (wild-type/QC strain), P. aeruginosa ATCC 27853 (wild-type/QC strain), and the clinical isolate P. aeruginosa PA 8 were used to determine the ability of the exemplary carbapenem compounds to inhibit bacterial growth. An expanded panel of methicillin resistance S. aureus (MRSA) and Pseudomonas was also used to determine the ability of exemplary carbapenem compounds to inhibit bacterial growth across a broader representation of those species. To determine activity in MRSA and in addition to S. aureus ATCC 33591, S. aureus USA 300, USA 400 and USA 600, some of the most common clones found to cause human infection, were also used. To further gauge the impact on the carbapenem compounds due to various resistance mechanisms in Pseudomonas, the following strains were included: P. aeruginosa 35151 (hyper-permeable strain), P. aeruginosa AmexAB-OprM (an efflux pump knockout), and P. aeruginosa PA 3 (a clinical isolate of reduced carbapenem susceptibility). Briefly, cryo-preserved bacterial cultures of clinical strains are streaked for isolation on appropriate agar medium, in this case Mueller Hinton II agar. Following incubation to allow formation of colonies, these plates are sealed with parafilm and stored refrigerated for up to two weeks. For preparation of assay inocula and to ensure low variability, at least 5 colonies are picked from the agar plates with an inoculating loop and aseptically transferred to a culture tube containing 3 mL of Mueller-Hinton Broth (supplemented with divalent cations to required levels based on Manufacturers' specification). The broth culture is grown for 3-5 hours at 37° C. with shaking at 200 rpm. Meanwhile, 2-fold serial dilutions of test compounds are conducted in a 96 well plate with a final volume of 75 μL per well at 2-fold the final desired concentration. After the dilution plates are set up the growing cultures are then diluted in a cuvette containing MH II broth and the optical density is measured at 600 nm. Inocula are diluted such that 75 μL of this culture in Mueller-Hinton Broth results in a starting bacterial concentration of 5×10^5 CFU/mL when added to the dilution plates. The plates are incubated 16-20 hours at 37° C. The MIC is read visually as the lowest concentration well with no bacterial growth.
(§2) Representative results are shown in Tables 3, 4, and 5 where A represents an MIC>32 μg/mL, B represents an MIC between 8 and 32 μg/mL inclusive, C represents an MIC between 1 and 4 μg/mL inclusive, and D represents an MIC of <1 μg/mL. NT=Not Tested.

[1] = system: P. aeruginosa ATCC 27853 (wild-type/QC strain); assay: broth microdilution MIC assay, P. aeruginosa ATCC 27853; settings: Pseudomonas aeruginosa, ATCC27853; Table 5; P. aeruginosa 27853; read-out: P. aeruginosa 27853 MIC
Procedure: as §1, §2

[2] = system: S. aureus ATCC 33591 (methicillin-resistant); assay: broth microdilution MIC assay, S. aureus ATCC 33591; settings: Staphylococcus aureus, ATCC33591; Table 4; S. aureus 33591; read-out: S. aureus 33591 MIC
Procedure: as §1, §2

S. aureus USA600 = assay: broth microdilution MIC assay, S. aureus USA 600; settings: Staphylococcus aureus; Table 4; S. aureus USA600; read-out: S. aureus USA600 MIC
Procedure: as §1, §2

[3] = system: E. coli ATCC 25922 (wild-type/QC strain); assay: broth microdilution MIC assay, E. coli ATCC 25922; settings: Escherichia coli, ATCC25922; Table 4; E. coli 25922; read-out: E. coli 25922 MIC
Procedure: as §1, §2

[4] = system: P. aeruginosa ΔmexAB-OprM (an efflux pump knockout); assay: broth microdilution MIC assay, P. aeruginosa ΔmexAB-OprM; settings: Pseudomonas aeruginosa, 20 h, read-out: P. aeruginosa ΔmexAB-OprM MIC
Procedure: as §1, §2

[5] = system: P. aeruginosa 35151 (hyper-permeable strain); assay: broth microdilution MIC assay, P. aeruginosa 35151; settings: Pseudomonas aeruginosa, read-out: P. aeruginosa 35151 MIC
Procedure: as §1, §2

`C[C@@H](O)[C@H]1C(=O)N2C(C(=O)O)=C(S[C@@H]3CCN(CC4CCN(C(=O)CN)CC4)C3)[C@H](C)[C@H]12` [Example 47, (4R,5S,6S)-3-(((R)-1-((1-glycylpiperidin-4-yl)methyl)pyrrolidin-3-yl)thio)-6-((R)-1-hydroxyethyl)-4-methyl-7-oxo-1-azabicyclo[3.2.0]hept-2-ene-2-carboxylic acid] was tested. Which MIC (S. aureus USA 300) did it give?
The MIC was 1 to 4 µg/mL.

What about the MIC [1] of the same compound?
The MIC was 1 to 4 µg/mL.

And the MIC [2]?
Its MIC is 8 to 32 µg/mL.

And the MIC (S. aureus USA600)?
Its MIC is 1 to 4 µg/mL.

And the MIC [3]?
The MIC was under 1 µg/mL.

What about the MIC [4] of the same compound?
Its MIC is 1 to 4 µg/mL.

And the MIC [5]?
Its MIC is under 1 µg/mL.

For `CNCC(=O)N1CCC(CN2CC[C@@H](SC3=C(C(=O)O)N4C(=O)[C@H]([C@@H](C)O)[C@H]4[C@H]3C)C2)CC1` [Example 48, (4R,5S,6S)-6-((R)-1-hydroxyethyl)-4-methyl-3-(((R)-1-((1-(methylglycyl)piperidin-4-yl)methyl)pyrrolidin-3-yl)thio)-7-oxo-1-azabicyclo[3.2.0]hept-2-ene-2-carboxylic acid], which MIC (S. aureus USA 300) is on record?
The MIC was 1 to 4 µg/mL.

And the MIC [1]?
The MIC was 1 to 4 µg/mL.

And the MIC [2]?
Its MIC is 8 to 32 µg/mL.

What about the MIC (S. aureus USA600) of the same compound?
Its MIC is 1 to 4 µg/mL.

What about the MIC [3] of the same compound?
The MIC was under 1 µg/mL.

And the MIC [4]?
The MIC was 1 to 4 µg/mL.

And the MIC [5]?
Its MIC is under 1 µg/mL.

For `C[C@@H](O)[C@H]1C(=O)N2C(C(=O)O)=C(S[C@@H]3CCN(C[C@H]4CCN(C(=N)N)C4)C3)[C@H](C)[C@H]12` [Example 52, (4R,5S,6S)-3-(((R)-1-(((R)-1-carbamimidoylpyrrolidin-3-yl)methyl)pyrrolidin-3-yl)thio)-6-((R)-1-hydroxyethyl)-4-methyl-7-oxo-1-azabicyclo[3.2.0]hept-2-ene-2-carboxylic acid], which MIC (S. aureus USA 300) is on record?
The MIC was under 1 µg/mL.

What about the MIC [1] of the same compound?
Its MIC is 1 to 4 µg/mL.

And the MIC [2]?
The MIC was 1 to 4 µg/mL.

What about the MIC (S. aureus USA600) of the same compound?
The MIC was under 1 µg/mL.

What about the MIC [3] of the same compound?
Its MIC is under 1 µg/mL.

What about the MIC [4] of the same compound?
Its MIC is under 1 µg/mL.

What about the MIC [5] of the same compound?
Its MIC is under 1 µg/mL.

For `C[C@@H](O)[C@H]1C(=O)N2C(C(=O)O)=C(S[C@@H]3CCN(C[C@@H]4CCN(C(=N)N)C4)C3)[C@H](C)[C@H]12` [Example 54, (4R,5S,6S)-3-(((R)-1-(((S)-1-carbamimidoylpyrrolidin-3-yl)methyl)pyrrolidin-3-yl)thio)-6-((R)-1-hydroxyethyl)-4-methyl-7-oxo-1-azabicyclo[3.2.0]hept-2-ene-2-carboxylic acid], which MIC (S. aureus USA 300) is on record?
The MIC was under 1 µg/mL.

And the MIC [1]?
The MIC was 1 to 4 µg/mL.

What about the MIC [2] of the same compound?
Its MIC is 1 to 4 µg/mL.

What about the MIC (S. aureus USA600) of the same compound?
Its MIC is 1 to 4 µg/mL.

What about the MIC [3] of the same compound?
The MIC was under 1 µg/mL.

And the MIC [4]?
The MIC was under 1 µg/mL.

And the MIC [5]?
The MIC was under 1 µg/mL.

Which results are given for `C[C@@H](O)[C@H]1C(=O)N2C(C(=O)O)=C(SC3CN(C4CCNCC4)C3)[C@H](C)[C@H]12` [Example 55, (4R,5S,6S)-6-((R)-1-hydroxyethyl)-4-methyl-7-oxo-3-((1-(piperidin-4-yl)azetidin-3-yl)thio)-1-azabicyclo[3.2.0]hept-2-ene-2-carboxylic acid]?
MIC (S. aureus USA 300): 1 to 4 µg/mL; MIC [1]: 1 to 4 µg/mL; MIC [2]: 1 to 4 µg/mL; MIC (S. aureus USA600): < 1 µg/mL; MIC [3]: < 1 µg/mL; MIC [4]: 1 to 4 µg/mL; MIC [5]: < 1 µg/mL

For `C[C@@H](O)[C@H]1C(=O)N2C(C(=O)O)=C(SC3CN(CCC4CCNCC4)C3)[C@H](C)[C@H]12` [Example 56, (4R,5S,6S)-6-((R)-1-hydroxyethyl)-4-methyl-7-oxo-3-((1-(2-(piperidin-4-yl)ethyl)azetidin-3-yl)thio)-1-azabicyclo[3.2.0]hept-2-ene-2-carboxylic acid], which MIC (S. aureus USA 300) is on record?
Its MIC is 1 to 4 µg/mL.

And the MIC [1]?
Its MIC is 1 to 4 µg/mL.

And the MIC [2]?
The MIC was 1 to 4 µg/mL.

And the MIC (S. aureus USA600)?
Its MIC is 1 to 4 µg/mL.

And the MIC [3]?
Its MIC is under 1 µg/mL.

What about the MIC [4] of the same compound?
The MIC was 1 to 4 µg/mL.

And the MIC [5]?
Its MIC is under 1 µg/mL.
